Assay results from patent publication US11666594B2, “Antibody-drug conjugates comprising a cyclic dinucleotide” (TAKEDA PHARMACEUTICAL COMPANY LIMITED, priority 2016, dated 2023).
Where a name gives a salt, the structure may show the parent alone. Read-outs that look alike come from different tables or passages of the source. Each block holds one compound with its values, some of them ahead of it.

How the values were obtained:
WT STING = WT STING (Homo sapiens (Human), UniProt Q86WV6, H232R); assay: Reporter gene assay (2): ISRE NanoLuc reporter in 293T cells, with digitonin, WT STING; format: cell-based; conditions: for EC50: with digitonin, read-out: STING-293T cell EC50 (μM) Reporter with digitonin (B); for activation at 30 µM: HEK-293T, read-out: activity level against WT STING of test compound (30 μM)
Experimental: The culture solution was removed, and the test compound diluted with assay buffer (50 mM HEPES pH 7.0, 100 mM KCl, 3 mM MgCl2, 85 mM Sucrose, 0.1 mM DTT, 0.2% BSA, 1 mM ATP, 0.1 mM GTP, 10 μg/ml Digitonin) was added thereto by 15 μL/well. […] Luminescence signals derived from firefly luciferase and NanoLuc Luciferase were each measured using EnVision (PerkinElmer, Waltham, Mass., US) according to Nano-Glo Dual-Luciferase Reporter Assay System (Promega, Fitchburg, Wis., US) protocol. The ratio of the count of NanoLuc Luciferase divided by the count of firefly luciferase was used for culculation.

THP1-Dual cells = assay: THP-1 Dual Lucia reporter gene assay; format: cell-based, human; conditions: 20 hours; read-out: THP-1 Dual cell EC50 (μM) Reporter
Experimental: THP1-Dual™ cells (InvivoGen #thpd-nfis) were derived from the human THP-1 monocyte cell line by stable integration of the Lucia luciferase gene, a secreted luciferase reporter gene, under the control of an ISG54 (interferon-stimulated gene) minimal promoter in conjunction with five interferon (IFN)-stimulated response elements. On the day of experiment, the cells were plated to a black, 384-well plate (Corning 356697) at 7500 cells/25 μL per well density in growth media (RPMI 1640, 2 mM L-glutamine, 25 mM HEPES, 10% heat-inactivated fetal bovine serum, 100 μg/mL Normocin™, 100 U/mL-100 μg/mL Pen-Strep, 10 μg/mL of blasticidin, and 100 μg/mL of Zeocin). The cell plates were dosed with 62.5 nL of the testing compounds, and then incubated at 37° C. for 20 hours. At the end of the incubation, 15 μL/well of the QUANTI-Luc™ (InvivoGen #rep-qlc1) were added, and luminescence was measured immediately using the LeadSeeker.

[1] = Human plasma stability assay; format: in vitro ADME; conditions: elimination rate constant k; heparinized human plasma, 37° C., up to 24 hours
Experimental: The compound was incubated in heparinized human plasma at 37° C. for 0, 1, 2, 4, 8 and 24 hours, and the change in compound concentration was measured by LC/MS/MS method. The elimination rate constant (=k(/h)) was calculated based on the fitted curve assuming the exponential decrease of concentration as follows; concentration at time x=initial concentration*exp(−k*x).

CT-26 mouse tumor cells = assay: Anti-tumor effect in colon carcinoma CT-26 syngeneic mice model; format: in vivo; conditions: CT-26, Balb/C mice; intravenous, q3dx3; Ex3a 30 mg/kg, Ex14 1.0 mg/kg
Experimental: (§1) 8×10^4 B^16F10 and 2×10^5 CT-26 mouse tumor cells were subcutaneously implanted in the flank of female C57BL/6 (B16F10) and Balb/C (CT-26) mice (n=7 per group). Vehicle (1×PBS), compound Ex3a (30 mg/kg) or Ex14 (1.0 mg/kg) were intravenously administered (final volume of […]) to tumor-bearing mice once the tumor volume has reached 100 mm^3 (Day 0). Vehicle, Ex3a or Ex14 were given every 3 days for a total of 3 doses (q3dx3). Tumor and body weight measurements were taken three times per week using vernier calipers and mettler scale, respectively. Tumor volumes were determined by multiplying the square of the width (‘W’), measured along the […] of the tumor, by one-half the length (‘L’) measured along the […] of the tumor (V=W^2×0.5 L)

B16F10 mouse tumor cells = assay: Anti-tumor effect in B16F10 syngeneic mice model; format: in vivo; conditions: B16F10, C57BL/6 mice; intravenous, q3dx3; Ex3a 30 mg/kg, Ex14 1.0 mg/kg
Experimental: as §1

[2] = 30 μM, digitonin, 2′,3′-cGAMP (30 μM) = 100%

WT STING, sequence (Q86WV6 whole entry H232R): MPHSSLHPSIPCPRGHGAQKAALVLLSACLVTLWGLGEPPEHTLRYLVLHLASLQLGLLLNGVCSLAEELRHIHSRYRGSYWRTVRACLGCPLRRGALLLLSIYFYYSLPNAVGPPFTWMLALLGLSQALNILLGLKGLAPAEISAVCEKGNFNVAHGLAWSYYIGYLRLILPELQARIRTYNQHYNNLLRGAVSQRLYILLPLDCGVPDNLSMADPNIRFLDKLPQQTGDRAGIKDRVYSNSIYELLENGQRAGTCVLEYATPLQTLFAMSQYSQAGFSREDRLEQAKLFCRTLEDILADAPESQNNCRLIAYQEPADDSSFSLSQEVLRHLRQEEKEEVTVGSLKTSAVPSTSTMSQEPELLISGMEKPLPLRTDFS

Compound: Nc1ncnc2c1ncn2[C@@H]1O[C@@H]2COP(=O)(O)O[C@@H]3[C@H](O)[C@@H](COP(=O)(S)O[C@H]2[C@H]1F)O[C@H]3n1cc(F)c2c(=O)[nH]cnc21 (stereo partly drawn) [Ex3a, disodium (5R,7R,8R,2aR,14R,15R,5aR,16R)-14-(6-amino-9H-purin-9-yl)-15-fluoro-7-(5-fluoro-4-oxo-3,4-dihydro-7H-pyrrolo[2,3-d]pyrimidin-7-yl)-16-hydroxy-2-sulfidooctahydro-12H-5,8-methanofuro[3,2-1][1,3,6,9,11,2,10]pentaoxadiphosphacyclotetradecin-10-olate 2,10-dioxide]
EC50 (WT STING): 0.13 µM | EC50 (THP1-Dual cells): 5.6 µM | Human plasma stability [1]: 0.58 h⁻¹ | anti-tumor effect (CT-26 mouse tumor cells): anti-tumor effects were observed | anti-tumor effect (B16F10 mouse tumor cells): anti-tumor effects were observed

EC50 (WT STING): 0.13 µM | Human plasma stability [1]: <0.01 h⁻¹
Compound: Nc1ncnc2c1ncn2[C@@H]1O[C@@H]2COP(=O)(S)O[C@@H]3[C@H](O)[C@@H](COP(=O)(S)O[C@H]2[C@H]1F)O[C@H]3n1cc(F)c2c(=O)[nH]cnc21 (stereo partly drawn) [Example 14, 7-((2R,5R,7R,8R,10R,12aR,14R,15R,15aR,16R)-14-(6-amino-9H-purin-9-yl)-15-fluoro-16-hydroxy-2,10-dioxido-2,10-disulfanyloctahydro-12H-5,8-methanofuro[3,2-1][1,3,6,9,11,2,10]pentaoxadiphosphacyclotetradecin-7-yl)-5-fluoro-3,7-dihydro-4H-pyrrolo[2,3-d]pyrimidin-4-one disodium salt]
anti-tumor effect (CT-26 mouse tumor cells): anti-tumor effects were observed | anti-tumor effect (B16F10 mouse tumor cells): anti-tumor effects were observed

Compound: Nc1nc2c(ncn2[C@@H]2O[C@@H]3COP(=O)(O)O[C@H]4[C@@H](O)[C@H](n5cnc6c(N)ncnc65)O[C@@H]4COP(=O)(O)O[C@@H]2[C@@H]3O)c(=O)[nH]1 [cGAMP, 2′,3′-cGAMP, reference compound]
Human plasma stability [1]: 1.39 h⁻¹

activation at 30 µM (WT STING; [2]): 114%
Compound: Nc1ncnc2c1ncn2[C@@H]1O[C@@]23CO[C@@H]1[C@@H]2OP(=O)(O)OC[C@H]1O[C@@H](n2cc(F)c4c(=O)[nH]cnc42)[C@H](OP(=O)(O)OC3)[C@@H]1O [Example 16, 7-((5R,7R,8R,12aR,14R,15R,15aS,18R)-14-(6-amino-9H-purin-9-yl)-2,10,18-trihydroxy-2,10-dioxidohexahydro-14H-15,12a-(epoxymethano)-5,8-methanofuro[3,2-1][1,3,6,9,11,2,10]pentaoxadiphosphacyclotetradecin-7(12H)-yl)-5-fluoro-3,7-dihydro-4H-pyrrolo[2,3-d]pyrimidin-4-one di-triethylamine salt]

Compound: Nc1nc2c(ncn2[C@@H]2O[C@@H]3COP(=O)(O)O[C@H]4[C@@H](O)[C@H](c5cnn6c(N)ncnc56)O[C@@H]4COP(=O)(O)O[C@@H]2[C@@H]3O)c(=O)[nH]1 [Example 13, 2-amino-9-((5R,7R,8R,12aR,14S,15S,15aS,16R)-14-(4-aminopyrazolo[1,5-a][1,3,5]triazin-8-yl)-2,10,15,16-tetrahydroxy-2,10-dioxidooctahydro-12H-5,8-methanofuro[3,2-1][1,3,6,9,11,2,10]pentaoxadiphosphacyclotetradecin-7-yl)-1,9-dihydro-6H-purin-6-one di-triethylamine salt]
activation at 30 µM (WT STING): 99%

Compound: Nc1ncnc2c1ncn2[C@@H]1O[C@@]23CO[C@@H]1[C@@H]2OP(=O)(S)OC[C@H]1O[C@@H](n2cc(F)c4c(=O)[nH]cnc42)[C@H](OP(=O)(O)OC3)[C@@H]1O (stereo partly drawn) [Example 17, 7-((5R,7R,8R,12aR,14R,15R,15aS,18R)-14-(6-amino-9H-purin-9-yl)-10,18-dihydroxy-2,10-dioxido-2-sulfanylhexahydro-14H-15,12a-(epoxymethano)-5,8-methanofuro[3,2-1][1,3,6,9,11,2,10]pentaoxadiphosphacyclotetradecin-7(12H)-yl)-5-fluoro-3,7-dihydro-4H-pyrrolo[2,3-d]pyrimidin-4-one di-trimethylamine salt]
activation at 30 µM (WT STING): 110%

activation at 30 µM (WT STING; [2]): 99%
Compound: Nc1ncnc2c1ncn2[C@@H]1O[C@@H]2COP(=O)(O)O[C@@H]3[C@H](O)[C@@H](COP(=O)(O)O[C@H]2[C@H]1F)O[C@H]3n1cc(F)c2c(=O)[nH]cnc21 [Example 1a, 7-((5R,7R,8R,12aR,14R,15R,15aR,16R)-14-(6-amino-9H-purin-9-yl)-15-fluoro-2,10,16-trihydroxy-2,10-dioxidooctahydro-12H-5,8-methanofuro[3,2-1][1,3,6,9,11,2,10]pentaoxadiphosphacyclotetradecin-7-yl)-5-fluoro-3,7-dihydro-4H-pyrrolo[2,3-d]pyrimidin-4-one disodium salt]

Compound: Nc1ncnc2c1ncn2[C@@H]1O[C@@H]2COP(=O)(O)O[C@@H]3[C@H](O)[C@@H](COP(=O)(S)O[C@H]2[C@H]1F)O[C@H]3n1cc(F)c2c(=O)[nH]cnc21 (stereo partly drawn) [Example 3, 7-((2R,5R,7R,8R,12aR,14R,15R,15aR,16R)-14-(6-amino-9H-purin-9-yl)-15-fluoro-10,16-dihydroxy-2,10-dioxido-2-sulfanyloctahydro-12H-5,8-methanofuro[3,2-1][1,3,6,9,11,2,10]pentaoxadiphosphacyclotetradecin-7-yl)-5-fluoro-3,7-dihydro-4H-pyrrolo[2,3-d]pyrimidin-4-one 1.7 triethylamine salt]
activation at 30 µM (WT STING; [2]): 97%

activation at 30 µM (WT STING; [2]): 102% | EC50 (WT STING): 0.19 µM | Human plasma stability [1]: <0.01 h⁻¹
Compound: Nc1ncnc2c1ncn2[C@@H]1O[C@@H]2COP(=O)(S)O[C@@H]3[C@H](O)[C@@H](COP(=O)(S)O[C@H]2[C@H]1O)O[C@H]3n1cc(F)c2c(=O)[nH]cnc21 (stereo partly drawn) [Example 5, 7-((5R,7R,8R,12aR,14R,15R,15aS,16R)-14-(6-amino-9H-purin-9-yl)-15,16-dihydroxy-2,10-dioxido-2,10-disulfanyloctahydro-12H-5,8-methanofuro[3,2-1][1,3,6,9,11,2,10]pentaoxadiphosphacyclotetradecin-7-yl)-5-fluoro-3,7-dihydro-4H-pyrrolo[2,3-d]pyrimidin-4-one di-triethylamine salt (Optical Isomer)]

Compound: Nc1nc2c(ncn2[C@@H]2O[C@@H]3COP(=O)(O)O[C@@H]4[C@H](O)[C@@H](COP(=O)(O)O[C@H]3[C@H]2F)O[C@H]4n2cc(F)c3c(=O)[nH]cnc32)c(=O)[nH]1 [Example 19, 2-amino-9-((5R,7R,8R,12aR,14R,15R,15aR,16R)-15-fluoro-7-(5-fluoro-4-oxo-3,4-dihydro-7H-pyrrolo[2,3-d]pyrimidin-7-yl)-2,10,16-trihydroxy-2,10-dioxidooctahydro-12H-5,8-methanofuro[3,2-1][1,3,6,9,11,2,10]pentaoxadiphosphacyclotetradecin-14-yl)-1,9-dihydro-6H-purin-6-one di-triethylamine salt]
activation at 30 µM (WT STING): 101%

activation at 30 µM (WT STING; [2]): 97%
Compound: Nc1ncnc2c1ncn2[C@@H]1O[C@@H]2COP(=O)(O)O[C@@H]3[C@H](O)[C@@H](COP(=O)(O)O[C@H]2[C@H]1F)O[C@H]3n1cc(F)c2c(=O)[nH]cnc21 [Example 1, 7-((5R,7R,8R,12aR,14R,15R,15aR,16R)-14-(6-amino-9H-purin-9-yl)-15-fluoro-2,10,16-trihydroxy-2,10-dioxidooctahydro-12H-5,8-methanofuro[3,2-1][1,3,6,9,11,2,10]pentaoxadiphosphacyclotetradecin-7-yl)-5-fluoro-3,7-dihydro-4H-pyrrolo[2,3-d]pyrimidin-4-one di-triethylamine salt]
